Data: the supplement of paper PMC10307832

Key:
Test in all cases: relative viability (nuclei count vs DMSO), 5 days (fraction); higher = more cells survive
JZL-184 + Pemetrexed = compound: C1CN(CCC1C(C2=CC3=C(C=C2)OCO3)(C4=CC5=C(C=C4)OCO5)O)C(=O)OC6=CC=C(C=C6)[N+](=O)[O-] [JZL-184] + Nc1nc2[nH]cc(CCc3ccc(C(=O)N[C@@H](CCC(=O)O)C(=O)O)cc3)c2c(=O)[nH]1 [Pemetrexed] (partner 0.2 µM)
Method in brief: (§1)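 The day after seeding in 1536-well plates, lung cancer cell lines were treated by pin tool with a single drug, or with a fixed anchor-drug dose together with five library-drug doses (not always all listed) in √10 steps. After 5 days, a combined fix-and-stain solution (final 0.05% Triton X-100, 1% formaldehyde, 1 ug/ml Hoechst) was added. Nuclei counted on 4× images gave relative viability as treated counts over vehicle counts, reported as the median of duplicate plates.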

JZL-184 + Lapatinib = compound: C1CN(CCC1C(C2=CC3=C(C=C2)OCO3)(C4=CC5=C(C=C4)OCO5)O)C(=O)OC6=CC=C(C=C6)[N+](=O)[O-] [JZL-184] + CS(=O)(=O)CCNCc1ccc(-c2ccc3ncnc(Nc4ccc(OCc5cccc(F)c5)c(Cl)c4)c3c2)o1 [Lapatinib] (partner 2 µM)
Method in brief: as §1

JZL-184 + Phenformin = compound: C1CN(CCC1C(C2=CC3=C(C=C2)OCO3)(C4=CC5=C(C=C4)OCO5)O)C(=O)OC6=CC=C(C=C6)[N+](=O)[O-] [JZL-184] + N=C(N)NC(=N)NCCc1ccccc1 [Phenformin] (partner 250 µM)
Method in brief: as §1

JZL-184 + Olaparib = compound: C1CN(CCC1C(C2=CC3=C(C=C2)OCO3)(C4=CC5=C(C=C4)OCO5)O)C(=O)OC6=CC=C(C=C6)[N+](=O)[O-] [JZL-184] + O=C(c1cc(Cc2n[nH]c(=O)c3ccccc23)ccc1F)N1CCN(C(=O)C2CC2)CC1 [Olaparib] (partner 8 µM)
Method in brief: as §1

JZL-184 + Palbociclib = compound: C1CN(CCC1C(C2=CC3=C(C=C2)OCO3)(C4=CC5=C(C=C4)OCO5)O)C(=O)OC6=CC=C(C=C6)[N+](=O)[O-] [JZL-184] + CC(=O)c1c(C)c2cnc(Nc3ccc(N4CCNCC4)cn3)nc2n(C2CCCC2)c1=O [Palbociclib] (partner 0.5 µM)
Method in brief: as §1

Row | Cell Line | relative viability (JZL-184 + Pemetrexed; first compound 0.04 µM) | relative viability (JZL-184 + Pemetrexed; first compound 0.4 µM) | relative viability (JZL-184 + Pemetrexed; first compound 1.265 µM) | relative viability (JZL-184 + Pemetrexed; first compound 4 µM) | relative viability (JZL-184 + Lapatinib; first compound 0.04 µM) | relative viability (JZL-184 + Lapatinib; first compound 0.4 µM) | relative viability (JZL-184 + Lapatinib; first compound 1.265 µM) | relative viability (JZL-184 + Lapatinib; first compound 4 µM) | relative viability (JZL-184 + Phenformin; first compound 0.04 µM) | relative viability (JZL-184 + Phenformin; first compound 0.4 µM) | relative viability (JZL-184 + Phenformin; first compound 1.265 µM) | relative viability (JZL-184 + Phenformin; first compound 4 µM) | relative viability (JZL-184 + Olaparib; first compound 0.04 µM) | relative viability (JZL-184 + Olaparib; first compound 0.4 µM) | relative viability (JZL-184 + Olaparib; first compound 1.265 µM) | relative viability (JZL-184 + Olaparib; first compound 4 µM) | relative viability (JZL-184 + Palbociclib; first compound 0.04 µM) | relative viability (JZL-184 + Palbociclib; first compound 0.4 µM) | relative viability (JZL-184 + Palbociclib; first compound 1.265 µM) | relative viability (JZL-184 + Palbociclib; first compound 4 µM)
1 | 201T | 0.355 | 0.351 | 0.348 | 0.293 | 1.09 | 1.06 | 0.981 | 1.02 | 0.451 | 0.44 | 0.465 | 0.45 | 0.858 | 0.845 | 0.82 | 0.841 | 0.383 | 0.339 | 0.373 | 0.344
2 | A549 |  |  |  |  | 1.06 | 0.967 | 0.955 | 1.01 | 0.195 | 0.167 | 0.164 | 0.112 | 0.31 | 0.288 | 0.382 | 0.367 |  |  |  | 
3 | A-427 | 1.03 | 0.971 | 1.06 | 0.886 | 1.17 | 1.05 | 1.01 | 1.09 | 0.308 | 0.327 | 0.441 | 0.306 | 0.807 | 0.739 | 0.77 | 0.732 | 0.588 | 0.515 | 0.518 | 0.536
4 | ABC-1 |  |  |  |  | 1.09 | 0.947 | 1.07 | 1.19 | 0.225 | 0.224 | 0.301 | 0.247 | 0.821 | 0.814 | 0.842 | 0.829 | 0.861 | 0.641 | 0.399 | 0.696
5 | BEN | 0.811 | 0.787 | 0.887 | 1.02 | 0.865 | 0.671 | 0.939 | 0.819 | 0.245 | 0.235 | 0.271 | 0.279 | 1.15 | 1.01 | 1.24 | 1.03 | 0.457 | 0.46 | 0.445 | 0.491
6 | CAL-12T | 1.4 | 0.997 | 1.22 | 1.08 | 0.701 | 0.529 | 0.789 | 0.593 | 0.751 | 0.26 | 0.626 | 0.539 | 0.836 | 0.701 | 0.786 | 0.777 | 0.692 | 0.314 | 0.508 | 0.576
7 | COR-L23 | 0.195 | 0.191 | 0.179 | 0.192 | 1.26 | 0.818 | 0.889 | 0.823 | 0.552 | 0.401 | 0.438 | 0.429 | 0.379 | 0.365 | 0.315 | 0.4 | 0.337 | 0.234 | 0.287 | 0.273
8 | COR-L 105 | 1.23 | 1.07 | 1.18 | 1.09 | 0.349 | 0.352 | 0.394 | 0.327 | 0.595 | 0.497 | 0.548 | 0.436 | 0.686 | 0.775 | 0.663 | 0.679 | 0.464 | 0.376 | 0.371 | 0.409
9 | ChaGo-K-1 | 0.262 | 0.257 | 0.256 | 0.266 |  |  |  |  | 0.616 | 0.449 | 0.467 | 0.44 | 0.485 | 0.411 | 0.447 | 0.41 | 1 | 0.933 | 0.975 | 0.951
10 | EKVX | 0.364 | 0.326 | 0.352 | 0.403 | 0.193 | 0.221 | 0.194 | 0.2 | 0.236 | 0.243 | 0.244 | 0.238 | 0.851 | 0.778 | 0.769 | 0.834 | 0.436 | 0.331 | 0.323 | 0.371
11 | EMC-BAC-2 | 0.452 | 0.423 | 0.454 | 0.473 | 0.96 | 0.869 | 0.971 | 0.83 | 0.609 | 0.476 | 0.568 | 0.456 | 0.473 | 0.479 | 0.491 | 0.492 | 0.584 | 0.458 | 0.508 | 0.512
12 | EPLC-272H | 0.316 | 0.22 | 0.351 | 0.319 | 1.07 | 1.02 | 0.972 | 0.944 | 0.303 | 0.293 | 0.351 | 0.34 | 0.68 | 0.613 | 0.805 | 0.778 | 0.331 | 0.314 | 0.326 | 0.297
13 | H3255 | 0.632 | 0.49 | 0.522 | 0.553 | 0.234 | 0.267 | 0.261 | 0.321 | 0.321 | 0.323 | 0.336 | 0.422 | 0.614 | 0.574 | 0.587 | 0.481 | 0.353 | 0.322 | 0.343 | 0.323
14 | HARA | 0.289 |  | 0.268 | 0.254 | 0.839 | 0.773 | 0.807 | 0.751 | 0.376 | 0.39 | 0.481 | 0.407 | 0.762 |  | 0.762 | 0.947 | 0.25 | 0.204 | 0.273 | 0.238
15 | HCC-15 | 0.222 | 0.217 | 0.212 | 0.23 | 0.988 | 0.813 | 0.943 | 0.778 | 0.548 | 0.467 | 0.485 | 0.454 | 0.725 | 0.685 | 0.771 | 0.736 | 0.732 | 0.77 | 0.71 | 0.698
16 | HCC-44 | 0.708 | 0.621 | 0.688 | 0.64 | 1.15 | 0.93 | 1.08 | 1.07 | 0.231 | 0.104 | 0.245 | 0.185 | 1.04 | 0.98 | 0.97 | 0.928 | 0.965 | 0.967 | 1.03 | 0.981
